Experimental data taken from US9505710B2 (priority 2015, dated 2016).
Where a name gives a salt, the structure may show the parent alone. Read-outs that look alike come from different tables or passages of the source.

Key:
[1] = molecular target: T1, BoNT/A LC1-429 (Clostridium botulinum, UniProt P0DPI1); experiment: biochemical
[2] = molecular target: T1, BoNT/A LC1-429; experiment: biochemical; conditions: BoNT/A Ki (nM)

T1 sequence (P0DPI1 1-429, added parts left off): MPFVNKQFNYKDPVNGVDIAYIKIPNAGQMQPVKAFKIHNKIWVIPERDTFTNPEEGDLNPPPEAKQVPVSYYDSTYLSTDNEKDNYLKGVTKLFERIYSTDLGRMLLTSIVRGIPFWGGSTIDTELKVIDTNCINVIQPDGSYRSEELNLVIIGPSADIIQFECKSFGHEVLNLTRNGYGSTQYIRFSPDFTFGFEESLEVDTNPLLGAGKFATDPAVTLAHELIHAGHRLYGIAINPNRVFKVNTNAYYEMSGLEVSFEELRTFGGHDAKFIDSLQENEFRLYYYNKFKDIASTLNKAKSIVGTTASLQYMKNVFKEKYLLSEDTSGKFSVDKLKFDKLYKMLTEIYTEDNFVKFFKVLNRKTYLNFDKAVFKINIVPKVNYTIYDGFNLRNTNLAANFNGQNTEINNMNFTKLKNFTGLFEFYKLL

CCO[C@H](CC(=O)NO)[C@H](Cc1ccc(-c2ccncc2)cc1)c1ccc(F)cc1 [Example 1-12, (3R,4R)-3-ethoxy-4-(4-fluorophenyl)-N-hydroxy-5-(4-(pyridin-4-yl)phenyl)pentanamide]
Ki [1]: 178 nM

CCO[C@H](CC(=O)NO)[C@H](Cc1ccc(CC)cc1)c1ccc(F)cc1 [Example 1-6, (3R,4R)-3-ethoxy-5-(4-ethylphenyl)-4-(4-fluorophenyl)-N-hydroxypentanamide]
Ki [1]: 91.5 nM

CCO[C@H](CC(=O)NO)[C@H](Cc1ccc(C(=O)NC)cc1)c1ccc(F)cc1 [Example 1-7]
Ki [1]: 1220 nM

C=Cc1ccc(C[C@H](c2ccc(F)cc2)[C@@H](CC(=O)NO)OCC)cc1 [Example 1-5, (3R,4R)-3-ethoxy-4-(4-fluorophenyl)-N-hydroxy-5-(4-vinylphenyl)pentanamide]
Ki [1]: 33.5 nM

CCO[C@H](CC(=O)NO)[C@H](Cc1ccccc1)c1ccc(F)cc1 [Example 1-1, (3R,4R)-3-ethoxy-4-(4-fluorophenyl)-N-hydroxy-5-phenylpentanamide]
Ki [1]: 38.5 nM

CCO[C@H](CC(=O)NO)[C@H](Cc1ccc(-c2cncc(C)c2)cc1)c1ccc(F)cc1 [Example 1-14, (3R,4R)-3-ethoxy-4-(4-fluorophenyl)-N-hydroxy-5-(4-(5-methylpyridin-3-yl)phenyl)pentanamide]
Ki [1]: 158 nM

CCO[C@H](CC(=O)NO)[C@H](Cc1ccc(Br)cc1)c1ccc(F)cc1 [Example 1-4, (3R,4R)-5-(4-bromophenyl)-3-ethoxy-4-(4-fluorophenyl)-N-hydroxypentanamide]
Ki [1]: 6.8 nM

CCO[C@H](CC(=O)NO)[C@H](Cc1cccc(Br)c1)c1ccc(F)cc1 [Example 1-2, (3R,4R)-5-(3-bromophenyl)-3-ethoxy-4-(4-fluorophenyl)-N-hydroxypentanamide]
Ki [1]: 154 nM

O=C(C[C@@H](OCc1ccccc1)[C@H](Cc1ccc(Cl)cc1)c1ccc(F)cc1F)NO [Example 6-13, (3R,4R)-3-(benzyloxy)-5-(4-chlorophenyl)-4-(2,4-difluorophenyl)-N-hydroxypentanamide]
Ki [2]: 114 nM

CO[C@H](CC(=O)NO)[C@H](Cc1ccc(Cl)cc1)c1ccc(Cl)cc1 [Example 3-4, (3R,4R)-4,5-bis(4-chlorophenyl)-N-hydroxy-3-methoxypentanamide]
Ki [2]: 4.8 nM

C=Cc1ccc([C@@H](Cc2ccc(Cl)cc2)[C@@H](CC(=O)NO)OCC)cc1 [Example 3-9, (3R,4R)-5-(4-chlorophenyl)-3-ethoxy-N-hydroxy-4-(4-vinylphenyl)pentanamide]
Ki [2]: 3.2 nM

CCO[C@H](CC(=O)NO)[C@H](Cc1ccc(Cl)cc1)c1ccc(CN2CCNCC2)cc1 [Example 3-18, (3R,4R)-5-(4-chlorophenyl)-3-ethoxy-N-hydroxy-4-(4-(piperazin-1-ylmethyl)phenyl)pentanamide]
Ki [2]: 13.5 ± 2.8 nM

CO[C@H](CC(=O)NO)[C@H](Cc1ccc(Cl)cc1)c1ccc(CO)cc1 [Example 3-11, (3R,4R)-5-(4-chlorophenyl)-N-hydroxy-4-(4-(hydroxymethyl)phenyl)-3-methoxypentanamide]
Ki [2]: 9.7 nM

CO[C@H](CC(=O)NO)[C@H](Cc1ccc(Cl)cc1)c1ccc(C(=O)N2CCOCC2)cc1 [Example 4-6, (3R,4R)-5-(4-chlorophenyl)-N-hydroxy-3-methoxy-4-(4-(morpholine-4-carbonyl)phenyl)pentanamide]
Ki [2]: 11.4 nM

COCCO[C@H](CC(=O)NO)[C@H](Cc1ccc(Cl)cc1)c1ccc(F)cc1F [Example 6-14, (3R,4R)-5-(4-chlorophenyl)-4-(2,4-difluorophenyl)-N-hydroxy-3-(2-methoxyethoxy)pentanamide]
Ki [2]: 55.1 nM

CO[C@H](CC(=O)NO)[C@H](Cc1ccc(Cl)cc1)c1ccc(F)cc1 [Example 6-2, (3R,4R)-5-(4-chlorophenyl)-4-(4-fluorophenyl)-N-hydroxy-3-methoxypentanamide potassium salt]
Ki [2]: 13 nM

CCCCO[C@H](CC(=O)NO)[C@H](Cc1ccc(Cl)cc1)c1ccc(F)cc1F [Example 6-15, (3R,4R)-3-butoxy-5-(4-chlorophenyl)-4-(2,4-difluorophenyl)-N-hydroxypentanamide]
Ki [2]: 48.5 nM

CO[C@H](CC(=O)NO)[C@H](Cc1ccc(Cl)cc1)c1ccc(Cl)c(C(=O)N2CCCCC2)c1 [Example 5-3, (3R,4R)-4-(4-chloro-3-(piperidine-1-carbonyl)phenyl)-5-(4-chlorophenyl)-N-hydroxy-3-methoxypentanamide]
Ki [2]: 13.1 nM

CCO[C@H](CC(=O)NO)[C@H](Cc1ccc(Cl)cc1)c1ccc(C(=O)N2CCN(C(=O)OC(C)(C)C)CC2)cc1 [Example 4-8, tert-butyl 4-(4-((2R,3R)-1-(4-chlorophenyl)-3-ethoxy-5-(hydroxyamino)-5-oxopentan-2-yl)benzoyl)piperazine-1-carboxylate]
Ki [2]: 22 nM

CCO[C@H](CC(=O)NO)[C@H](Cc1ccc(Cl)cc1)c1ccc(CO)cc1 [Example 3-10, (3R,4R)-5-(4-chlorophenyl)-3-ethoxy-N-hydroxy-4-(4-(hydroxymethyl)phenyl)pentanamide]
Ki [2]: 2.7 nM

CCO[C@H](CC(=O)NO)[C@H](Cc1ccc(Cl)cc1)c1ccc(Cl)cc1 [Example 6-1, (3R,4R)-4,5-bis(4-chlorophenyl)-3-ethoxy-N-hydroxypentanamide]
Ki [2]: 4.9 nM

CCCCOCc1ccc([C@@H](Cc2ccc(Cl)cc2)[C@@H](CC(=O)NO)OC)cc1 [Example 3-13]
Ki [2]: 24.9 nM

CO[C@H](CC(=O)NO)[C@H](Cc1ccc(Cl)cc1)c1cc(F)c(F)c(F)c1F [Example 5-6, (3R,4R)-5-(4-chlorophenyl)-N-hydroxy-3-methoxy-4-(2,3,4,5-tetrafluorophenyl)pentanamide]
Ki [2]: 4.95 nM

CO[C@H](CC(=O)NO)[C@H](Cc1ccc(Cl)cc1C)c1ccc(Br)cc1F [Example 6-23, (3R,4R)-4-(4-bromo-2-fluorophenyl)-5-(4-chloro-2-methylphenyl)-N-hydroxy-3-methoxypentanamide]
Ki [2]: 1.94 nM

O=C(CC[C@H](Cc1ccc(Cl)cc1)c1ccc(Br)cc1)NO [Example 3-3]
Ki [2]: 915 nM

CCO[C@H](CC(=O)NO)[C@H](Cc1ccc(Cl)cc1)c1ccc(C(=O)N2CCNCC2)cc1 [Example 4-9, (3R,4R)-5-(4-chlorophenyl)-3-ethoxy-N-hydroxy-4-(4-(piperazine-1-carbonyl)phenyl)pentanamide]
Ki [2]: 9.2 ± 6.1 nM

CCO[C@H](CC(=O)NO)[C@H](Cc1ccc(Cl)cc1)c1ccc(C(=O)NO)cc1 [Example 4-1, 4-((2R,3R)-1-(4-chlorophenyl)-3-ethoxy-5-(hydroxyamino)-5-oxopentan-2-yl)-N-hydroxybenzamide]
Ki [2]: 10.5 nM

CO[C@H](CC(=O)NO)[C@H](Cc1ccc(F)cc1)c1ccc(Br)cc1 [Example 1-3, (3R,4R)-4-(4-bromophenyl)-5-(4-fluorophenyl)-N-hydroxy-3-methoxypentanamide]
Ki [2]: 9.36 nM

CO[C@H](CC(=O)NO)[C@H](Cc1ccc(Cl)cc1)c1ccc(F)cc1F [Example 5-4, (3R,4R)-5-(4-chlorophenyl)-4-(2,4-difluorophenyl)-N-hydroxy-3-methoxypentanamide]
Ki [2]: 3.95 nM

CO[C@H](CC(=O)NO)[C@H](Cc1ccc(F)cc1F)c1ccc(F)cc1F [Example 6-12, (3R,4R)-4,5-bis(2,4-difluorophenyl)-N-hydroxy-3-methoxypentanamide]
Ki [2]: 29.5 nM
